Data on nine compounds can be found in US12421223B2, “Compounds and compositions for treating conditions associated with NLRP activity” (Novartis AG, priority 2018, dated 2025).

The subject of the assay is IL-1β production in PMA-differentiated THP-1 cells. In words: IL-1β production in PMA-differentiated THP-1 cells stimulated with gramicidin (hTHP-1 assay, 2% fetal bovine serum). The format is cell-based. Particulars: Homo sapiens, hTHP-1 assay containing 2% fetal bovine serum, gramicidin 5 μM, IL-1β by HTRF, read-out: THP-1 IC50 (Average IC50 of compounds in hTHP-1 assay). The protocol:
The following protocol is suitable for testing the activity of the compounds disclosed herein.
Procedure 1: IL-1β Production in PMA-Differentiated THP-1 Cells Stimulated with Gramicidin.
THP-1 cells were purchased from the American Type Culture Collection and sub-cultured according to instructions from the supplier. Cells were cultured in complete RPMI 1640 (containing 10% heat inactivated FBS, penicillin (100 units/ml) and streptomycin (100 μg/ml)), and maintained in log phase prior to experimental setup. Prior to the experiment, compounds were dissolved in dimethyl sulfoxide (DMSO) to generate a 30 mM stock. The compound stock was first pre-diluted in DMSO to 3, 0.34, 0.042 and 0.0083 mM intermediate concentrations and subsequently spotted using Echo550 liquid handler into an empty 384-well assay plate to achieve desired final concentration (e.g. 100, 33, 11, 3.7, 1.2, 0.41, 0.14, 0.046, 0.015, 0.0051, 0.0017 μM). DMSO was backfilled in the plate to achieve a final DMSO assay concentration of 0.37%. The plate was then sealed and stored at room temperature until required.
THP-1 cells were treated with PMA (Phorbol 12-myristate 13-acetate) (20 ng/ml) for 16-18 hours. On the day of the experiment the media was removed and adherent cells were detached with trypsin for 5 minutes. Cells were then harvested, washed with complete RPMI 1640, spun down, and resuspended in RPMI 1640 (containing 2% heat inactivated FBS, penicillin (100 units/ml) and streptomycin (100 μg/ml). The cells were plated in the 384-well assay plate containing the spotted compounds at a density of 50,000 cells/well (final assay volume 50 μl). Cells were incubated with compounds for 1 hour and then stimulated with gramicidin (5 μM) (Enzo) for 2 hours. Plates were then centrifuged at 340 g for 5 min. Cell free supernatant (40 μL) was collected using a 96-channel PlateMaster (Gilson) and the production of IL-1β was evaluated by HTRF (cisbio). The plates were incubated for 18 h at 4° C. and read using the preset HTRF program (donor emission at 620 nm, acceptor emission at 668 nm) of the SpectraMax i3x spectrophotometer (Molecular Devices, software SoftMax 6). A vehicle only control and a dose titration of CRID3 (100-0.0017 μM) were run concurrently with each experiment.
Procedure 2: IL-1β Production in PMA-Differentiated THP-1 Cells Stimulated with Gramicidin.
THP-1 cells were purchased from the American Type Culture Collection and sub-cultured according to instructions from the supplier. Prior to experiments, cells were cultured in complete RPMI 1640 (containing 10% heat inactivated FBS, penicillin (100 units/ml) and streptomycin (100 μg/ml)), and maintained in log phase prior to experimental setup. Prior to the experiment THP-1 were treated with PMA (Phorbol 12-myristate 13-acetate) (20 ng/ml) for 16-18 hours. Compounds were dissolved in dimethyl sulfoxide (DMSO) to generate a 30 mM stock. On the day of the experiment the media was removed and adherent cells were detached with trypsin for 5 minutes. Cells were then harvested, washed with complete RPMI 1640, spun down, resuspended in RPMI 1640 (containing 2% heat inactivated FBS, penicillin (100 units/ml) and streptomycin (100 μg/ml). The cells were plated in a 384-well plate at a density of 50,000 cells/well (final assay volume 50 μl). Compounds were first dissolved in assay medium to obtain a 5× top concentration of 500 μM. 10 step dilutions (1:3) were then undertaken in assay medium containing 1.67% DMSO. 5× compound solutions were added to the culture medium to achieve desired final concentration (e.g. 100, 33, 11, 3.7, 1.2, 0.41, 0.14, 0.046, 0.015, 0.0051, 0.0017 μM). Final DMSO concentration was at 0.37%. Cells were incubated with compounds for 1 hour and then stimulated with gramicidin (5 μM) (Enzo) for 2 hours. Plates were then centrifuged at 340 g for 5 min. Cell free supernatant (40 μL) was collected using a 96-channel PlateMaster (Gilson) and the production of IL-1β was evaluated by HTRF (cisbio). […]
In general terms: Time-resolved FRET reads energy transfer from a long-lived donor to a nearby acceptor.
Usually IC50 stands for the concentration that inhibits the measured activity by half. As for `CC(C)(O)c1ncc([C@@H](NC(=O)OCc2ccccc2)c2ccn(-c3c4c(cc5c3CCC5)CCC4)n2)s1` (single isomer, unassigned) [Compound 116], the IC50 lay in the range of 5 to 30 µM.

Consider `CC(C)(O)c1ncc(C(CNC(=O)OCc2ccccc2)c2cnn(-c3c4c(cc5c3CCC5)CCC4)c2)s1` (stereo not drawn) [Compound 101, Benzyl (2-(1-(1,2,3,5,6,7-hexahydro-s-indacen-4-yl)-1H-pyrazol-4-yl)-2-(2-(2-hydroxypropan-2-yl)thiazol-5-yl)ethyl) carbamate], for which the IC50 fell in the range of 1 to 5 µM.

On to `CC(C)(O)c1ncc(C(NC(=O)OCc2ccccc2)c2ccn(-c3c4c(cc5c3CCC5)CCC4)n2)s1` (stereo not drawn) [Compound 102, Benzyl (1-(1,2,3,5,6,7-hexahydros-indacen-4-yl)-1H-pyrazol-3-yl)(2-(2-hydroxypropan-2-yl)thiazol-5-yl)methylcarbamate], for which the IC50 was 5 to 30 µM.

In the case of `CC(C)(O)c1ncc(C(=O)c2ccnn2-c2c3c(cc4c2CCC4)CCC3)s1` [Compound 103], the IC50 fell in the range of 5 to 30 µM.

Turning to `CC(C)(O)c1cnc(S(=O)(=O)c2cnn(-c3c4c(cc5c3CCC5)CCC4)c2)s1` [Compound 104, 2-(2-((1-(1,2,3,5,6,7-hexahydro-s-indacen-4-yl)-1H-pyrazol-4-yl)sulfonyl)thiazol-5-yl)propan-2-ol], the IC50 was 5 to 30 µM.

In the case of `CC(C)(O)c1ncc(C(CNC(=O)c2ccccc2)c2cnn(-c3c4c(cc5c3CCC5)CCC4)c2)s1` (stereo not drawn) [Compound 114], the IC50 is 5 to 30 µM.

With `CC(C)(O)c1ncc(S(=O)(=O)c2cnn(-c3c4c(cc5c3CCC5)CCC4)c2)s1` [Compound 115, 2-(5-((1-(1,2,3,5,6,7-hexahydro-s-indacen-4-yl)-1H-pyrazol-4-yl)sulfonyl)thiazol-2-yl)propan-2-ol], the concentration for half-maximal inhibition (IC50) lay in the range of 5 to 30 µM.

Consider `CC(C)(O)c1ncc(C(=O)c2ccn(-c3c4c(cc5c3CCC5)CCC4)n2)s1` [Compound 118], for which the IC50 was 5 to 30 µM.

Turning to `O=C(NCc1cnn(-c2c3c(cc4c2CCC4)CCC3)c1)OCc1ccccc1` [Compound 200, Benzyl ((1-(1,2,3,5,6,7-hexahydro-s-indacen-4-yl)-1H-pyrazol-4-yl)methyl)carbamate], the IC50 was in the range of 5 to 30 µM.
